Patent publication EP1325958A1, “Genetic sequence coding for creatinine deiminase, and its use” (CampusGen GmbH, priority 2002, dated 2003)

Tested on: Creatinin-Deiminase (EC 3.5.4.21) aus Tissierella creatinini, heterolog in E. coli exprimiert, gereinigt, SEQ ID NO:2
Assay: Substrate saturation of purified recombinant creatinine deiminase (coupled optical test, Lineweaver-Burk plot)
Format: biochemical
Conditions: purified recombinant enzyme, 0,06 µg per test, coupled optical test, 37°C, TEA-Puffer pH 8,6, read-out: Km-Wert für Creatinin
Text: Abb. 1: Biosynthese von Creatin und Creatinin im menschlichen Körper. Die Synthese erfolgt in mehreren Schritten in verschiedenen Körperorganen. Abb. 2: Enzymatische Bestimmung von Creatinin mit Creatininase, Creatin-Kinase, Pyruvat-Kinase und Laktatdehydrogenase. Creatinin wird katalysiert durch Creatininase und Creatin-Kinase gekoppelt mit Pyruvatbildung. Das Pyruvat wird in der Indikatorreaktion in Gegenwart von Laktatdehydrogenase zu Laktat umgesetzt und dabei eine Extinktionsabnahme bei 340 nm von NADH gemessen. Abb.3: Enzymatische Bestimmung von Creatinin mit Creatininase, Creatinase, Sarcosinoxidase und Peroxidase. Creatinin wird katalysiert durch Creatininase, Creatinase und Sarcosinoxidase zu Glycin, Formaldehyd und H2O2 abgebaut. Das H2O2 wird in der Indikatorreaktion mittels Peroxidase anhand der Extinktionszunahme bei 510 oder 546 nm bestimmt. Abb.4: Enzymatische Bestimmung von Creatinin mit Creatinin-Deiminase und Glutamatdehydrogenase. Creatinin wird katalysiert durch Creatinin-Deiminase zu N-Methylhydantoin und Ammoniak abgebaut. Der Ammoniak wird mit α-Ketoglutarat und NADH mittels Glutamat-Dehydrogenase zu Glutamat umgesetzt und photometrisch die Extinktionsabnahme durch Verbrauch an NADH bei 340 bzw. 365 nm gemessen. Abb. 5: Schematische Darstellung des pBluescriptSK^+-Vektors. Gezeigt sind einige Restriktionsschnittstellen. […]

Structure (SMILES) | Km [µM]
CN1CC(=O)N=C1N [Creatinin] | 1100

Same assay, conditions: substrate Creatinin, this enzyme preparation, Proteinkonzentration: 6 µg/ml --> 1467 U/mg

Structure (SMILES) | Vmax
CN1CC(=O)N=C1N [Creatinin] | 8,8 U/ml

Tested on: Creatinin-Deiminase (EC 3.5.4.21) aus Tissierella creatinini, heterolog in E. coli exprimiert, gereinigt, SEQ ID NO:2
Assay: Interference studies: substances added to the standard creatinine deiminase test, enzyme activity determined
Format: biochemical
Conditions: statement in the text referring to Tabelle 1
Protocol: Dieses erfindungsgemäße Verfahren ermöglicht die Bestimmung von Creatinin bei Einsatz von nur zwei Enzymen, die in einer Mess- bzw. Indikatorreaktion eingesetzt werden, wobei keine komplizierten Hilfsreaktionen erforderlich sind. Wie in Tabelle 1 gezeigt ist, weist die erfindungsgemäße Creatinin-Deiminase eine außerordentlich hohe Spezifität für sein Substrat Creatinin auf. Das Enzym zeigt insbesondere mit Cytosin bis zu einer Konzentration von […] keine Interferenz in der Reaktion. Somit ermöglicht die erfindungsgemäße Creatinin-Deiminase eine Bestimmung von Creatinin auch in Gegenwart anderer Substrate, insbesondere Cytosin ohne das Auftreten einer Interferenz, die das Messergebnis verfälschen würde. Tabelle 1:
Die Aktivität des gereinigten rekombinanten Enzyms wurde durch eine modifizierte enzymatische Methode nach Bergmeyer 1985 (BERGMEYER, H.U. (1985). Methods of enzymatic analysis 8: 488-507) bestimmt. Sie beruht auf der Messung des während der Creatinindeiminierung freigesetzten Ammoniaks in einem gekoppelten optischen Test durch Verbrauch von NADH bei 340 nm bzw. 365 nm. Der Reaktionsansatz enthielt folgende Konzentrationen in einem Endvolumen von 0,6 ml: TEA-Puffer 0,11 mol/l, pH 8,6; Creatinin 1,5 mmol/l; ADP 1,11 mmol/l; DTE 1 mmol/l; NADH 0,11 mmol/l; 2-Oxoglutarat 11 mmol/l; Glutamat-Dehydrogenase 8 U/ml. Nach Inkubation des Reaktionsansatzes (5 min bei 37°C) in einer Küvette im Photometer wurde die Reaktion mit 0,01 ml des gereinigten rekombinanten Enzyms gestartet und die Extinktionsabnahme bei 340 nm beobachtet. Eine Enzymeinheit katalysiert den Abbau von 1 µmol Creatinin/min bei 37°C.
Es wurden Interferenzstudien mit der gereinigten heterolog exprimierten Creatinin-Deiminase mit verschiedenen in Seren relevanten Substanzen durchgeführt. Diese wurden zum Standardtestansatz gegeben und jeweils die Aktivität der Creatinin-Deiminase bestimmt. In Tabelle 1 sind die getesteten relevanten Substanzen aufgelistet, die in den angegebenen Konzentrationen keine Interferenzen mit dem Enzymtest zeigten. Die rekombinante Creatinin-Deiminase zeigte eine außerordentliche Substratspezifität bei Zusatz der in Tabelle 1 angegebenen Substanzen.

Structure (SMILES) | keine Interferenz in der Reaktion bis zu einer Konzentration von [mg/mL]
Nc1cc[nH]c(=O)n1 [Cytosin] | 2000

Same assay, conditions: substance added to the standard test (Creatinin 1,5 mmol/l, 37°C, pH 8,6); no interference with the enzyme test at the stated concentration

Structure (SMILES) | Keine Interferenzen bis zu einer Konzentration von
Nc1nc(=O)[nH]cc1F [5-Fluorocytosin] | 1000 mg/L
CC(C)=O [Aceton] | 2000 mg/L
O=C1O[C@H]([C@@H](O)CO)C(O)=C1O [Ascorbinsäure] | 200 mg/L
C[C@H](CS)C(=O)N1CCC[C@H]1C(=O)O [Captopril] | 83 mg/L
CN(CC(=O)O)C(=N)N [Creatin] | 2000 mg/L
Nc1cc[nH]c(=O)n1 [Cytosin] | 2000 mg/L
CNC[C@H](O)c1ccc(O)c(O)c1 [Epinephrin] | 0,05 mg/l
NS(=O)(=O)c1cc(C(=O)O)c(NCc2ccco2)cc1Cl [Fuoresemid] | 4433 mg/L
OC[C@H]1OC(O)[C@H](O)[C@@H](O)[C@@H]1O (some centres unmarked) [Glukose] | 1100 mg/L
N[C@@H](Cc1c[nH]cn1)C(=O)O [Histidin] | 2250 mg/L
NCC(O)c1cccc(O)c1 (centres unmarked) [Norfenefrin] | 1,5 mg/l
O=C(O)C(=O)O [Oxalsäure] | 400 mg/L
O=C(O)c1cc(N=Nc2ccc(S(=O)(=O)Nc3ccccn3)cc2)ccc1O [Salazosulfapyridin] | 550 mg/L
Cc1cc(NS(=O)(=O)c2ccc(N)cc2)no1 [Sulfatmethoxazol] | 500 mg/L
COc1cc(Cc2cnc(N)nc2N)cc(OC)c1OC [Trimethoprim] | 46 mg/L
CN[C@H](CC(C)C)C(=O)N[C@H]1C(=O)N[C@@H](CC(N)=O)C(=O)N[C@H]2C(=O)N[C@H]3C(=O)N[C@H](C(=O)N[C@H](C(=O)O)c4cc(O)cc(O)c4-c4cc3ccc4O)[C@H](O)c3ccc(c(Cl)c3)Oc3cc2cc(c3O[C@@H]2O[C@H](CO)[C@@H](O)[C@H](O)[C@H]2O[C@H]2C[C@](C)(N)[C@H](O)[C@H](C)O2)Oc2ccc(cc2Cl)[C@H]1O [Vancomycin] | 288 mg/L
CC(N)(Cc1ccc(O)c(O)c1)C(=O)O (stereo not drawn) [α-Methyl-Dopa] | 107 mg/L
